Results published in PubChem BioAssay (NCI).
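Cells were grown in 96-well plates and exposed to each compound for 48 hours at five concentrations; endpoints were interpolated linearly between bracketing concentrations, or set to the highest concentration if not reached. TGI marks complete inhibition of growth.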

Legend:
Assay in all cases: growth of human tumour cells (NCI), 48 h
[1] = tested on: HOP-62 NSCLC
[2] = tested on: SF-539 CNS
[3] = tested on: OVCAR-3 ovarian
[4] = tested on: NCI-H226 lung
[5] = tested on: IGROV1 ovarian
[6] = tested on: CAKI-1 renal
[7] = tested on: UACC-62 melanoma
[8] = tested on: SNB-75 CNS
[9] = tested on: HT29 colon
[10] = tested on: HCT-116 colon
[11] = tested on: OVCAR-5 ovarian
[12] = tested on: HCT-15 colon
[13] = tested on: NCI-H23 lung
[14] = tested on: LOX IMVI melanoma
[15] = tested on: SNB-78 CNS
[16] = tested on: SK-MEL-28 melanoma
[17] = tested on: M19-MEL melanoma
[18] = tested on: KM12 colon
[19] = tested on: K-562 leukemia
[20] = tested on: OVCAR-8 ovarian
[21] = tested on: NCI-H460 lung
[22] = tested on: HL-60(TB) leukemia
[23] = tested on: SF-295 CNS
[24] = tested on: SK-OV-3 ovarian
[25] = tested on: MOLT-4 leukemia
[26] = tested on: SK-MEL-5 melanoma
[27] = tested on: UO-31 renal
[28] = tested on: RXF 393 renal
[29] = tested on: U251 CNS
[30] = tested on: SR leukemia
[31] = tested on: MALME-3M melanoma
[32] = tested on: A498 renal
[33] = tested on: DLD-1 colon
[34] = tested on: DMS 273 small cell lung
[35] = tested on: SW-620 colon
[36] = tested on: NCI-H522 lung
[37] = tested on: UACC-257 melanoma
[38] = tested on: M14 melanoma
[39] = tested on: LXFL 529 NSCLC
[40] = tested on: KM20L2 colon
[41] = tested on: COLO 205 colon
[42] = tested on: ACHN renal
[43] = tested on: A549 NSCLC
[44] = tested on: SNB-19 CNS
[45] = tested on: EKVX NSCLC
[46] = tested on: SN12C renal
[47] = tested on: OVCAR-4 ovarian
[48] = tested on: HOP-92 NSCLC
[49] = tested on: RXF-631 renal
[50] = tested on: SF-268 CNS
[51] = tested on: 786-0 renal
[52] = tested on: CCRF-CEM leukemia
[53] = tested on: TK-10 renal
[54] = tested on: DMS 114 small cell lung
[55] = tested on: SK-MEL-2 melanoma
[56] = tested on: XF 498 CNS
[57] = tested on: HOP-18 NSCLC
[58] = tested on: HCC-2998 colon
[59] = tested on: RPMI-8226 leukemia

How did the TGI [1] turn out when CCOC(=O)C1C(=O)C(C(=O)OCC)C(c2ccccc2)N(C)C1c1ccccc1 (stereo not drawn) was run?
Its TGI is greater than 100 µM.

And the TGI [2]?
The TGI was greater than 100 µM.

And the TGI [3]?
Its TGI is greater than 100 µM.

What about the TGI [4] of the same compound?
Its TGI is greater than 100 µM.

What about the TGI [5] of the same compound?
The TGI was greater than 100 µM.

What about the TGI [6] of the same compound?
Its TGI is greater than 100 µM.

What about the TGI [7] of the same compound?
The TGI was greater than 100 µM.

And the TGI [8]?
The TGI was greater than 100 µM.

And the TGI [9]?
Its TGI is greater than 100 µM.

And the TGI [10]?
Its TGI is greater than 100 µM.

What about the TGI [11] of the same compound?
The TGI was greater than 100 µM.

And the TGI [12]?
Its TGI is greater than 100 µM.

And the TGI [13]?
Its TGI is greater than 100 µM.

What about the TGI [14] of the same compound?
The TGI was greater than 100 µM.

And the TGI [15]?
Its TGI is greater than 100 µM.

What about the TGI [16] of the same compound?
Its TGI is greater than 100 µM.

What about the TGI [17] of the same compound?
The TGI was greater than 100 µM.

And the TGI [18]?
The TGI was greater than 100 µM.

And the TGI [19]?
Its TGI is greater than 100 µM.

And the TGI [20]?
The TGI was greater than 100 µM.

What about the TGI [21] of the same compound?
The TGI was greater than 100 µM.

What about the TGI [22] of the same compound?
The TGI was greater than 100 µM.

And the TGI [23]?
Its TGI is greater than 100 µM.

What about the TGI [24] of the same compound?
Its TGI is greater than 100 µM.

And the TGI [25]?
Its TGI is greater than 100 µM.

And the TGI [26]?
The TGI was greater than 100 µM.

What about the TGI [27] of the same compound?
The TGI was greater than 100 µM.

And the TGI [28]?
Its TGI is greater than 100 µM.

What about the TGI [29] of the same compound?
The TGI was greater than 100 µM.

And the TGI [30]?
Its TGI is greater than 100 µM.

And the TGI [31]?
The TGI was greater than 100 µM.

And the TGI [32]?
The TGI was greater than 100 µM.

And the TGI [33]?
Its TGI is greater than 100 µM.

What about the TGI [34] of the same compound?
Its TGI is greater than 100 µM.

And the TGI [35]?
The TGI was greater than 100 µM.

And the TGI [36]?
Its TGI is greater than 100 µM.

What about the TGI [37] of the same compound?
Its TGI is greater than 100 µM.

And the TGI [38]?
The TGI was greater than 100 µM.

And the TGI [39]?
Its TGI is greater than 100 µM.

What about the TGI [40] of the same compound?
The TGI was greater than 100 µM.

And the TGI [41]?
The TGI was greater than 100 µM.

And the TGI [42]?
Its TGI is greater than 100 µM.

And the TGI [43]?
The TGI was greater than 100 µM.

What about the TGI [44] of the same compound?
Its TGI is greater than 100 µM.

And the TGI [45]?
Its TGI is greater than 100 µM.

And the TGI [46]?
Its TGI is greater than 100 µM.

And the TGI [47]?
The TGI was greater than 100 µM.

And the TGI [48]?
The TGI was greater than 100 µM.

And the TGI [49]?
The TGI was greater than 100 µM.

And the TGI [50]?
The TGI was greater than 100 µM.

And the TGI [51]?
The TGI was greater than 100 µM.

And the TGI [52]?
Its TGI is greater than 100 µM.

What about the TGI [53] of the same compound?
Its TGI is greater than 100 µM.

What about the TGI [54] of the same compound?
The TGI was greater than 100 µM.

What about the TGI [55] of the same compound?
The TGI was greater than 100 µM.

With O=C(/C(=C\c1ccccc1)CN1CCOCC1)c1ccc(Br)cc1 as the compound, how does the TGI [1] read?
Its TGI is 13.1 µM.

And the TGI [2]?
Its TGI is 5.9 µM.

What about the TGI [3] of the same compound?
Its TGI is 6.93 µM.

What about the TGI [4] of the same compound?
The TGI was 12.7 µM.

What about the TGI [5] of the same compound?
The TGI was 9.32 µM.

What about the TGI [6] of the same compound?
The TGI was 3.95 µM.

And the TGI [7]?
Its TGI is 2.98 µM.

And the TGI [8]?
The TGI was 24.9 µM.

What about the TGI [9] of the same compound?
Its TGI is 4.56 µM.

What about the TGI [10] of the same compound?
The TGI was 3.2 µM.

And the TGI [11]?
The TGI was 9.14 µM.

What about the TGI [12] of the same compound?
The TGI was 4.22 µM.

What about the TGI [13] of the same compound?
Its TGI is 8.48 µM.

And the TGI [14]?
The TGI was 3.22 µM.

And the TGI [56]?
The TGI was 9.72 µM.

What about the TGI [15] of the same compound?
The TGI was 20.6 µM.

And the TGI [16]?
Its TGI is 3.85 µM.

What about the TGI [17] of the same compound?
The TGI was 3.43 µM.

And the TGI [18]?
Its TGI is 3.74 µM.

What about the TGI [19] of the same compound?
Its TGI is 15.9 µM.

And the TGI [57]?
The TGI was 3.85 µM.

What about the TGI [20] of the same compound?
Its TGI is 3.34 µM.

What about the TGI [21] of the same compound?
Its TGI is 8.79 µM.

What about the TGI [22] of the same compound?
Its TGI is 4.48 µM.

And the TGI [23]?
The TGI was 15.6 µM.

And the TGI [24]?
The TGI was 11.2 µM.

What about the TGI [25] of the same compound?
The TGI was 19 µM.

And the TGI [26]?
The TGI was 4.08 µM.

And the TGI [27]?
Its TGI is 3.29 µM.

What about the TGI [28] of the same compound?
The TGI was 5.99 µM.

What about the TGI [29] of the same compound?
The TGI was 6.34 µM.

And the TGI [30]?
Its TGI is 17.4 µM.

What about the TGI [58] of the same compound?
The TGI was 29.6 µM.

And the TGI [31]?
Its TGI is 3.31 µM.

And the TGI [32]?
Its TGI is 12.3 µM.

And the TGI [33]?
The TGI was 3.13 µM.

And the TGI [34]?
The TGI was 6.47 µM.

What about the TGI [35] of the same compound?
The TGI was 2.72 µM.

And the TGI [36]?
The TGI was 2.59 µM.

What about the TGI [37] of the same compound?
Its TGI is 8.93 µM.

What about the TGI [38] of the same compound?
Its TGI is 3.27 µM.

And the TGI [39]?
Its TGI is 4.67 µM.

And the TGI [40]?
Its TGI is 7.12 µM.

And the TGI [59]?
The TGI was 10.7 µM.

And the TGI [41]?
The TGI was 7.71 µM.

And the TGI [42]?
The TGI was 3.42 µM.

And the TGI [43]?
The TGI was 17 µM.

And the TGI [44]?
The TGI was 12.7 µM.

And the TGI [45]?
The TGI was 9.47 µM.

What about the TGI [46] of the same compound?
Its TGI is 4.35 µM.

And the TGI [47]?
Its TGI is 8.11 µM.

And the TGI [48]?
Its TGI is 10.8 µM.

And the TGI [50]?
Its TGI is 9.9 µM.

What about the TGI [51] of the same compound?
The TGI was 3.13 µM.

And the TGI [52]?
The TGI was 11.1 µM.

What about the TGI [53] of the same compound?
Its TGI is 12.2 µM.

What about the TGI [54] of the same compound?
Its TGI is 4.5 µM.

And the TGI [55]?
The TGI was 3.74 µM.
